Test results from US11197878B2, “Anti-inflammatory composition including novel quercetin-based compound” (AMOREPACIFIC CORPORATION, priority 2017, dated 2021).

System: IL-6 (Interleukin 6)
Assay: Test for inhibiting generation of IL-6 in H2O2-stimulated fibroblast (ELISA)
Format: cell-based
Details: for inhibition at 100 µg/mL: Fibroblast, 100 μg/ml, {1−(test sample−control)/(H2O2−control)}×100, read-out: Inhibition effect according to Equation 1, IL-6; for IL-6: fibroblast culture medium, H2O2 500 μM 24 hours, then test material (31, 32: 100 μg/ml) 48 hours, ELISA
Experimental: Fibroblast (PromoCell, Germany) was inoculated in a 6-well culturing plate at a concentration of 1×10^5 cells, and cultured in a 5% CO2 incubator at 37° C. for 24 hours. The well was treated with H2O2 500 μM and stimulated for 24 hours, and then were treated with quercetin3-O-[3-O″-(E)-p-coumaroyl][β-D-glucopyranosyl-(1→3)-O-α-L-rhamnopyranosyl-(1→6)-O-β-D-glucopyranoside] (‘New Material 31’) and quercetin3-O-[3-O″-(E)-p-coumaroyl][α-L-rhamnopyranosyl-(1→6)-O-β-D-glucopyranoside]) (‘New Material 32’) at a concentration of 100 μg/ml, respectively, and reacted for 48 hours. After the reaction was finished, the culture medium was collected and the ELISA analysis was performed. Herein, α-bisabolol, which is the material typically used as an anti-inflammatory agent and abirritant, was used as a control. As PGE2, a kit of Assay Design® was used, and as IL-6 and IL-8, a kit of Endogen® was used, and the test was carried out according to the methods prescribed in the manuals of the respective companies. (‘31’ refers to New Material 31, and ‘32’ refers to New Material 32) Inhibition effect={1−(test sample−control)/(H2O2−control)}×100 <Equation 1>

Row | Structure (SMILES) | inhibition at 100 µg/mL [%] | IL-6 [pg/mL]
1 | C[C@@H]1O[C@@H](OC[C@H]2O[C@@H](Oc3c(-c4ccc(O)c(O)c4)oc4cc(O)cc(O)c4c3=O)[C@H](O)[C@@H](OC(=O)/C=C/c3ccc(O)cc3)[C@@H]2O)[C@H](O)[C@H](O[C@@H]2O[C@H](CO)[C@@H](O)[C@H](O)[C@H]2O)[C@H]1O [New Material 31, quercetin3-O-[3-O″-(E)-p-coumaroyl][β-D-glucopyranosyl-(1→3)-O-α-L-rhamnopyranosyl-(1→6)-O-β-D-glucopyranoside]] | 29.2 | 226
2 | C[C@@H]1O[C@@H](OC[C@H]2O[C@@H](Oc3c(-c4ccc(O)c(O)c4)oc4cc(O)cc(O)c4c3=O)[C@H](O)[C@@H](OC(=O)/C=C/c3ccc(O)cc3)[C@@H]2O)[C@H](O)[C@H](O)[C@H]1O [New Material 32, quercetin3-O-[3-O″-(E)-p-coumaroyl][α-L-rhamnopyranosyl-(1→6)-O-β-D-glucopyranoside]] | 29.2 | 226
